Test results taken from US12545639B2, “3-substituted phenylamidine compounds, preparation and use thereof” (PI INDUSTRIES LTD., priority 2019, dated 2026).

Columns and labels:
[1] = test system: Pyricularia oryzae; assay: microbe, parasite or virus in culture; format: cell-based; details: 168 h, read-out: control compared to the untreated check (radial growth)
[2] = test system: Rhizoctonia solani; assay: Rhizoctonia solani (rice sheath blight/potato black scurf) in vitro test, radial growth on potato dextrose agar; format: cell-based; details: 168 h, 300 ppm in potato dextrose agar, 25° C., 60% relative humidity, seven days, read-out: control compared to the untreated check (radial growth)
[3] = test system: Botrytis cinerea; assay: Botrytis cinerea (gray mold) in vitro test, radial growth on potato dextrose agar; format: cell-based; details: 168 h, 300 ppm in potato dextrose agar, 22° C., 90% relative humidity, seven days, read-out: control compared to the untreated check (radial growth)
[4] = test system: Alternaria solani; assay: Alternaria solani (early blight of tomato/potato) in vitro test, radial growth on potato dextrose agar; format: cell-based; details: 168 h, 300 ppm in potato dextrose agar, 25° C., 60% relative humidity, seven days, read-out: control compared to the untreated check (radial growth)
[5] = test system: Colletotrichum capsici; assay: Colletotrichum capsici (anthracnose) in vitro test, radial growth on potato dextrose agar; format: cell-based; details: Colletotrichum truncatum, 168 h; 300 ppm in potato dextrose agar; 25° C., 60% relative humidity, seven days; read-out: control compared to the untreated check (radial growth)
[6] = test system: Septoria lycopersici/Corynespora cassicola (CORYCA); assay: Septoria lycopersici/Corynespora cassicola (CORYCA) (leaf spot of tomato) in vitro test, radial growth on potato dextrose agar; format: cell-based; details: 168 h, 300 ppm in potato dextrose agar, 25° C., 70% relative humidity, seven days, read-out: control compared to the untreated check (radial growth)
[7] = test system: Fusarium culmorum; assay: Fusarium culmorum (foot rot of cereals) in vitro test, radial growth on potato dextrose agar; format: cell-based; details: 168 h, 300 ppm in potato dextrose agar, 25° C., 60% relative humidity, seven days, read-out: control compared to the untreated check (radial growth)
Procedure: Compounds were dissolved in 0.3% dimethyl sulfoxide and then added to potato dextrose agar medium just prior to dispensing it into petri dishes. 5 mL medium with the compound in the desired concentration was dispensed into 60 mm sterile petri-plates. After solidification each plate was seeded with a 5 mm size mycelial disc taken from the periphery of an actively growing virulent culture plate. Plates were incubated in growth chambers at 25° C. temperature and 60% relative humidity for seven days and then the radial growth was measured and compared to that of the untreated control.

[8] = test system: Phakopsora pachyrhizi; assay: Phakopsora pachyrhizi test in soybean, preventive, in vivo on plants; details: in Glycine max, read-out: Efficacy (% control), disease severity compared to the untreated check

CCN(C)C=Nc1cc(C)cc(Cc2ccc(Cl)cc2)c1C [Compound 224, N′-(3-(4-chlorobenzyl)-2,5-dimethylphenyl)-N-ethyl-N-methylformimidamide]
≥ 70%: inhibition of growth at 300 ppm [1] | inhibition of growth at 300 ppm [2] | inhibition of growth at 300 ppm [3] | inhibition of growth at 300 ppm [4] | inhibition of growth at 300 ppm [5] | inhibition of growth at 300 ppm [6] | inhibition of growth at 300 ppm [7] | pest or weed control at 500 ppm [8]

CCN(C)C=Nc1cc(C)cc(Nc2ccc(C(C)(C)C)cc2)c1Cl [Compound 25, N′-(3-((4-(tert-butyl)phenyl)amino)-2-chloro-5-methylphenyl)-N-ethyl-N-methylformimidamide]
≥ 70%: inhibition of growth at 300 ppm [1] | inhibition of growth at 300 ppm [2] | inhibition of growth at 300 ppm [3] | inhibition of growth at 300 ppm [4] | inhibition of growth at 300 ppm [5] | inhibition of growth at 300 ppm [6] | inhibition of growth at 300 ppm [7]

CCN(C)C=Nc1cc(C)cc(Cc2ccc(C#N)cc2)c1Cl [Compound 46, N′-(2-chloro-3-(4-cyanobenzyl)-5-methylphenyl)-N-ethyl-N-methylformimidamide]
≥ 70%: inhibition of growth at 300 ppm [1] | inhibition of growth at 300 ppm [2] | inhibition of growth at 300 ppm [3] | inhibition of growth at 300 ppm [4] | inhibition of growth at 300 ppm [5] | inhibition of growth at 300 ppm [7]

CCN(C)C=Nc1cc(F)cc(Nc2ccc(F)c(F)c2)c1C [Compound 73, N′-(3-((3,4-difluorophenyl)amino)-5-fluoro-2-methylphenyl)-N-ethyl-N-methylformimidamide]
≥ 70%: inhibition of growth at 300 ppm [1] | inhibition of growth at 300 ppm [2] | inhibition of growth at 300 ppm [3] | inhibition of growth at 300 ppm [4] | inhibition of growth at 300 ppm [5] | inhibition of growth at 300 ppm [6] | inhibition of growth at 300 ppm [7]

CCN(C)C=Nc1cc(C)cc(N(C)c2cc(C)ccc2Cl)c1Cl [Compound 120, N′-(2-chloro-3-((2-chloro-5-methylphenyl)(methyl)amino)-5-methylphenyl)-N-ethyl-N-methylformimidamide]
≥ 70%: inhibition of growth at 300 ppm [1] | inhibition of growth at 300 ppm [4] | inhibition of growth at 300 ppm [5] | inhibition of growth at 300 ppm [6] | inhibition of growth at 300 ppm [7] | pest or weed control at 500 ppm [8]

CCN(C)C=Nc1cc(C)cc(Cc2ccc(C)cc2)c1C [Compound 2, N′-(2,5-dimethyl-3-(4-methylbenzyl)phenyl)-N-ethyl-N-methylformimidamide]
≥ 70%: inhibition of growth at 300 ppm [1] | inhibition of growth at 300 ppm [2] | inhibition of growth at 300 ppm [3] | inhibition of growth at 300 ppm [4] | inhibition of growth at 300 ppm [5] | inhibition of growth at 300 ppm [6] | inhibition of growth at 300 ppm [7]

CCN(C)C=Nc1cc(Cl)cc(Cc2ccc(C)cc2)c1C [Compound 105, N′-(5-chloro-2-methyl-3-(4-methylbenzyl)phenyl)-N-ethyl-N-methylformimidamide]
≥ 70%: inhibition of growth at 300 ppm [1] | inhibition of growth at 300 ppm [2] | inhibition of growth at 300 ppm [3] | inhibition of growth at 300 ppm [4] | inhibition of growth at 300 ppm [5] | inhibition of growth at 300 ppm [7] | pest or weed control at 500 ppm [8]

CCN(C)C=Nc1cc(C)cc(Nc2cccc(F)c2)c1Cl [Compound 35, N′-(2-chloro-3-((3-fluorophenyl)amino)-5-methylphenyl)-N-ethyl-N-methylformimidamide]
≥ 70%: inhibition of growth at 300 ppm [1] | inhibition of growth at 300 ppm [2] | inhibition of growth at 300 ppm [3] | inhibition of growth at 300 ppm [4] | inhibition of growth at 300 ppm [5] | inhibition of growth at 300 ppm [6] | inhibition of growth at 300 ppm [7]

CCN(C)C=Nc1cc(F)cc(Nc2cc(Cl)ccc2C)c1C [Compound 116, N′-(3-((5-chloro-2-methylphenyl)amino)-5-fluoro-2-methylphenyl)-N-ethyl-N-methylformimidamide]
≥ 70%: inhibition of growth at 300 ppm [1] | inhibition of growth at 300 ppm [4] | inhibition of growth at 300 ppm [5] | inhibition of growth at 300 ppm [6] | inhibition of growth at 300 ppm [7] | pest or weed control at 500 ppm [8]

CCN(C)C=Nc1cc(C)cc(Cc2cccc(Cl)c2)c1C [Compound 3, N′-(3-(3-chlorobenzyl)-2,5-dimethylphenyl)-N-ethyl-N-methylformimidamide]
≥ 70%: inhibition of growth at 300 ppm [1] | inhibition of growth at 300 ppm [2] | inhibition of growth at 300 ppm [3] | inhibition of growth at 300 ppm [4] | inhibition of growth at 300 ppm [5] | inhibition of growth at 300 ppm [6] | inhibition of growth at 300 ppm [7]

CCN(C)C=Nc1cc(C)cc(Cc2cccc(F)c2)c1C [Compound 5, N-ethyl-N′-(3-(3-fluorobenzyl)-2,5-dimethylphenyl)-N-methylformimidamide]
≥ 70%: inhibition of growth at 300 ppm [1] | inhibition of growth at 300 ppm [2] | inhibition of growth at 300 ppm [3] | inhibition of growth at 300 ppm [4] | inhibition of growth at 300 ppm [5] | inhibition of growth at 300 ppm [6] | inhibition of growth at 300 ppm [7]

CCN(C)C=Nc1cc(Cl)cc(Nc2ccc(OC)cc2)c1C [Compound 162, N′-(5-chloro-3-((4-methoxyphenyl)amino)-2-methylphenyl)-N-ethyl-N-methylformimidamide]
≥ 70%: inhibition of growth at 300 ppm [1] | inhibition of growth at 300 ppm [2] | inhibition of growth at 300 ppm [4] | inhibition of growth at 300 ppm [5] | inhibition of growth at 300 ppm [6] | inhibition of growth at 300 ppm [7]

CCN(C)C=Nc1cc(Cl)cc(Cc2ccccc2C)c1C [Compound 88, N′-(5-chloro-2-methyl-3-(2-methylbenzyl)phenyl)-N-ethyl-N-methylformimidamide]
≥ 70%: inhibition of growth at 300 ppm [1] | inhibition of growth at 300 ppm [2] | inhibition of growth at 300 ppm [3] | inhibition of growth at 300 ppm [4] | inhibition of growth at 300 ppm [5] | inhibition of growth at 300 ppm [7] | pest or weed control at 500 ppm [8]

CCN(C)C=Nc1cc(C)cc(Cc2ccccc2C)c1C [Compound 4, N′-(2,5-dimethyl-3-(2-methylbenzyl)phenyl)-N-ethyl-N-methylformimidamide]
≥ 70%: inhibition of growth at 300 ppm [1] | inhibition of growth at 300 ppm [2] | inhibition of growth at 300 ppm [3] | inhibition of growth at 300 ppm [4] | inhibition of growth at 300 ppm [5] | inhibition of growth at 300 ppm [6] | inhibition of growth at 300 ppm [7]

CCN(C)C=Nc1cc(C)cc(Nc2ncc(Cl)cc2C)c1Cl [Compound 112, N′-(2-chloro-3-((5-chloro-3-methylpyridin-2-yl)amino)-5-methylphenyl)-N-ethyl-N-methylformimidamide]
≥ 70%: inhibition of growth at 300 ppm [1] | inhibition of growth at 300 ppm [4] | inhibition of growth at 300 ppm [5] | inhibition of growth at 300 ppm [6] | inhibition of growth at 300 ppm [7]

CCN(C)C=Nc1cc(C)cc(Cc2ccccc2Cl)c1Cl [Compound 13, N′-(2-chloro-3-(2-chlorobenzyl)-5-methylphenyl)-N-ethyl-N-methylformimidamide]
≥ 70%: inhibition of growth at 300 ppm [1] | inhibition of growth at 300 ppm [2] | inhibition of growth at 300 ppm [3] | inhibition of growth at 300 ppm [4] | inhibition of growth at 300 ppm [5] | inhibition of growth at 300 ppm [6] | inhibition of growth at 300 ppm [7]

CCN(C)C=Nc1cc(C)cc(Cc2ccccc2C)c1Cl [Compound 12, N′-(2-chloro-5-methyl-3-(2-methylbenzyl)phenyl)-N-ethyl-N-methylformimidamide]
≥ 70%: inhibition of growth at 300 ppm [1] | inhibition of growth at 300 ppm [2] | inhibition of growth at 300 ppm [3] | inhibition of growth at 300 ppm [4] | inhibition of growth at 300 ppm [5] | inhibition of growth at 300 ppm [6] | inhibition of growth at 300 ppm [7]

CCN(C)C=Nc1cc(Cl)cc(Nc2cccc(Cl)c2)c1C [Compound 163, N′-(5-chloro-3-((3-chlorophenyl)amino)-2-methylphenyl)-N-ethyl-N-methylformimidamide]
≥ 70%: inhibition of growth at 300 ppm [1] | inhibition of growth at 300 ppm [2] | inhibition of growth at 300 ppm [3] | inhibition of growth at 300 ppm [4] | inhibition of growth at 300 ppm [5] | inhibition of growth at 300 ppm [6] | inhibition of growth at 300 ppm [7]

CCN(C)C=Nc1cc(C)cc(Nc2ccc(F)c(OC)c2)c1Cl [Compound 275, N′-(2-chloro-3-((4-fluoro-3-methoxyphenyl)amino)-5-methylphenyl)-N-ethyl-N-methylformimidamide]
≥ 70%: inhibition of growth at 300 ppm [1] | inhibition of growth at 300 ppm [2] | inhibition of growth at 300 ppm [4] | inhibition of growth at 300 ppm [5] | inhibition of growth at 300 ppm [6] | inhibition of growth at 300 ppm [7] | pest or weed control at 500 ppm [8]

CCN(C)C=Nc1cc(C)cc(Nc2ccc(SC(F)(F)F)cc2)c1Cl [Compound 26, N′-(2-chloro-5-methyl-3-((4-((trifluoromethyl)thio)phenyl)amino)phenyl)-N-ethyl-N-methylformimidamide]
≥ 70%: inhibition of growth at 300 ppm [2] | inhibition of growth at 300 ppm [3] | inhibition of growth at 300 ppm [4] | inhibition of growth at 300 ppm [5] | inhibition of growth at 300 ppm [7] | pest or weed control at 500 ppm [8]
